Species: Rattus norvegicus
Assay: Open TG-GATES - Regimen: Daily Repeat
Format: toxicity, organism-based, Sprague-Dawley
Parameters: regimen Daily Repeat, gender Male, age 6 weeks
Conditions: in vivo, po, route gavage; for Eos / Hb / Ht / Lym / MCH / MCHC / MCV / Mono / Neu / Plat / RBC / Ret / WBC / APTT / Bas / PT: tissue Blood; for KIDNEY_L / KIDNEY_R / KIDNEY_TOTAL: tissue Kidney; for LIVER: tissue Liver; for ALT / AST / BUN / CRE / Ca / DBIL / GLC / IP / K / LDH / Na / PL / RALB / TBIL / TC / TG / TP / gamma-GTP / ALP: tissue Plasma
[1] = 300 mg/kg, 72 h, dose level Middle, time 3 day
[2] = 300 mg/kg, […], dose level Middle, time 7 day
[3] = 300 mg/kg, […], dose level Middle, time 14 day
[4] = 300 mg/kg, […], dose level Middle, time 28 day
[5] = 1000 mg/kg, 72 h, dose level High, time 3 day
[6] = 1000 mg/kg, […], dose level High, time 7 day
[7] = 1000 mg/kg, […], dose level High, time 14 day
[8] = 1000 mg/kg, […], dose level High, time 28 day

SMILES: C[C@H](CS)C(=O)N1CCC[C@H]1C(=O)O [CAPTOPRIL]
- Eos [1]: 1.2%
- Hb [1]: 13.3 g/dL
- Ht [1]: 40.2%
- Lym [1]: 79.4%
- MCH [1]: 21.4 pg
- MCHC [1]: 33.1%
- MCV [1]: 64.5 fL
- Mono [1]: 4.2%
- Neu [1]: 15.2%
- Plat [1]: 111.4 x10_4/uL
- RBC [1]: 623.2 x10_4/ul
- Ret [1]: 7.7%
- WBC [1]: 92.7 x10_2/uL
- KIDNEY_L [1]: 1.1 g
- KIDNEY_R [1]: 1.1 g
- KIDNEY_TOTAL [1]: 2.2 g
- LIVER [1]: 12.3 g
- ALT [1]: 40.6 IU/L
- AST [1]: 61 IU/L
- BUN [1]: 17.8 mg/dL
- CRE [1]: 0.5 mg/dL
- Ca [1]: 11.5 mg/dL
- DBIL [1]: 0.022 mg/dL
- GLC [1]: 195.4 mg/dL
- IP [1]: 8.8 mg/dL
- K [1]: 5.1 meq/L
- LDH [1]: 89 IU/L
- Na [1]: 136 meq/L
- PL [1]: 143.4 mg/dL
- RALB [1]: 4.2 g/dL
- TBIL [1]: 0.4 mg/dL
- TC [1]: 76 mg/dL
- TG [1]: 73.8 mg/dL
- TP [1]: 6.1 g/dL
- gamma-GTP [1]: 0.8 IU/L
- TERMINAL_BW [2]: 259.5 g
- TERMINAL_BW [3]: 288.5 g
- TERMINAL_BW [4]: 322 g
- APTT [2]: 16.4 s
- Bas [2]: 0%
- Eos [2]: 1.2%
- Hb [2]: 13.3 g/dL
- Ht [2]: 39.7%
- Lym [2]: 85.2%
- MCH [2]: 21.2 pg
- MCHC [2]: 33.4%
- MCV [2]: 63.6 fL
- Mono [2]: 4.6%
- Neu [2]: 9.2%
- Plat [2]: 127.2 x10_4/uL
- RBC [2]: 625.8 x10_4/ul
- Ret [2]: 4.7%
- WBC [2]: 127.6 x10_2/uL
- APTT [3]: 16.6 s
- Bas [3]: 0%
- Eos [3]: 1%
- Hb [3]: 13 g/dL
- Ht [3]: 38.6%
- Lym [3]: 83.2%
- MCH [3]: 20.5 pg
- MCHC [3]: 33.7%
- MCV [3]: 60.7 fL
- Mono [3]: 4%
- Neu [3]: 11.4%
- PT [3]: 11.7 s
- Plat [3]: 128.4 x10_4/uL
- RBC [3]: 636.4 x10_4/ul
- Ret [3]: 4.4%
- WBC [3]: 183.2 x10_2/uL
- APTT [4]: 15.5 s
- Bas [4]: 0%
- Eos [4]: 1%
- Hb [4]: 14 g/dL
- Ht [4]: 41.6%
- Lym [4]: 82.2%
- MCH [4]: 19.3 pg
- MCHC [4]: 33.7%
- MCV [4]: 57.4 fL
- Mono [4]: 3.6%
- Neu [4]: 13.6%
- PT [4]: 11.9 s
- Plat [4]: 112.2 x10_4/uL
- RBC [4]: 724.6 x10_4/ul
- Ret [4]: 2.9%
- WBC [4]: 165.2 x10_2/uL
- KIDNEY_L [2]: 1.2 g
- KIDNEY_R [2]: 1.2 g
- KIDNEY_TOTAL [2]: 2.3 g
- KIDNEY_L [3]: 1.2 g
- KIDNEY_R [3]: 1.3 g
- KIDNEY_TOTAL [3]: 2.5 g
- KIDNEY_L [4]: 1.3 g
- KIDNEY_R [4]: 1.4 g
- KIDNEY_TOTAL [4]: 2.7 g
- LIVER [2]: 11.7 g
- LIVER [3]: 12.4 g
- LIVER [4]: 12.4 g
- ALT [2]: 32.8 IU/L
- AST [2]: 63.2 IU/L
- BUN [2]: 20.6 mg/dL
- CRE [2]: 0.6 mg/dL
- Ca [2]: 11 mg/dL
- DBIL [2]: 0.006 mg/dL
- GLC [2]: 192 mg/dL
- IP [2]: 8 mg/dL
- K [2]: 4.8 meq/L
- LDH [2]: 109.6 IU/L
- Na [2]: 138.2 meq/L
- PL [2]: 132 mg/dL
- RALB [2]: 3.8 g/dL
- TBIL [2]: 0.3 mg/dL
- TC [2]: 72.8 mg/dL
- TG [2]: 73.4 mg/dL
- TP [2]: 5.8 g/dL
- gamma-GTP [2]: 2.2 IU/L
- ALP [3]: 824.2 IU/L
- ALT [3]: 40.2 IU/L
- AST [3]: 66.6 IU/L
- BUN [3]: 24.4 mg/dL
- CRE [3]: 0.6 mg/dL
- DBIL [3]: 0.012 mg/dL
- GLC [3]: 203.6 mg/dL
- IP [3]: 7.8 mg/dL
- K [3]: 4.6 meq/L
- LDH [3]: 86.6 IU/L
- Na [3]: 135.2 meq/L
- PL [3]: 151 mg/dL
- RALB [3]: 3.8 g/dL
- TBIL [3]: 0.3 mg/dL
- TC [3]: 81.4 mg/dL
- TG [3]: 67 mg/dL
- TP [3]: 5.9 g/dL
- gamma-GTP [3]: 1.4 IU/L
- ALP [4]: 617.4 IU/L
- ALT [4]: 35.4 IU/L
- AST [4]: 65.8 IU/L
- BUN [4]: 30.8 mg/dL
- CRE [4]: 0.6 mg/dL
- DBIL [4]: 0.024 mg/dL
- GLC [4]: 191.2 mg/dL
- IP [4]: 7.4 mg/dL
- K [4]: 4.6 meq/L
- Na [4]: 136.8 meq/L
- PL [4]: 156.6 mg/dL
- RALB [4]: 4 g/dL
- TBIL [4]: 0.4 mg/dL
- TC [4]: 84.8 mg/dL
- TG [4]: 79 mg/dL
- TP [4]: 6.1 g/dL
- gamma-GTP [4]: 0.4 IU/L
- TERMINAL_BW [5]: 233.8 g
- APTT [5]: 16.1 s
- Bas [5]: 0%
- Eos [5]: 1.2%
- Hb [5]: 13.3 g/dL
- Ht [5]: 39.9%
- Lym [5]: 80.6%
- MCH [5]: 21.3 pg
- MCHC [5]: 33.2%
- MCV [5]: 64 fL
- Mono [5]: 5.2%
- Neu [5]: 13.4%
- PT [5]: 11.1 s
- Plat [5]: 122.3 x10_4/uL
- RBC [5]: 623.8 x10_4/ul
- Ret [5]: 6.2%
- KIDNEY_L [5]: 1.1 g
- KIDNEY_R [5]: 1.1 g
- KIDNEY_TOTAL [5]: 2.2 g
- LIVER [5]: 11 g
- ALP [5]: 971.8 IU/L
- ALT [5]: 40.6 IU/L
- AST [5]: 63 IU/L
- BUN [5]: 22.6 mg/dL
- CRE [5]: 0.5 mg/dL
- Ca [5]: 11.2 mg/dL
- DBIL [5]: 0.016 mg/dL
- GLC [5]: 193.4 mg/dL
- IP [5]: 8.2 mg/dL
- K [5]: 5 meq/L
- LDH [5]: 90.4 IU/L
- Na [5]: 135.2 meq/L
- PL [5]: 148.8 mg/dL
- RALB [5]: 3.9 g/dL
- TBIL [5]: 0.4 mg/dL
- TC [5]: 82.4 mg/dL
- TG [5]: 93.4 mg/dL
- TP [5]: 5.8 g/dL
- gamma-GTP [5]: 1.4 IU/L
- TERMINAL_BW [6]: 249.2 g
- TERMINAL_BW [7]: 310.3 g
- TERMINAL_BW [8]: 359.7 g
- APTT [6]: 16.3 s
- Bas [6]: 0%
- Eos [6]: 1.2%
- Hb [6]: 12.7 g/dL
- Ht [6]: 37.9%
- Lym [6]: 82.4%
- MCH [6]: 21.3 pg
- MCHC [6]: 33.5%
- MCV [6]: 63.6 fL
- Mono [6]: 4.6%
- Neu [6]: 11.8%
- Plat [6]: 123.8 x10_4/uL
- RBC [6]: 595.6 x10_4/ul
- Ret [6]: 4%
- WBC [6]: 141 x10_2/uL
- APTT [7]: 16.7 s
- Bas [7]: 0%
- Eos [7]: 1.2%
- Hb [7]: 12.7 g/dL
- Ht [7]: 37.6%
- Lym [7]: 81.8%
- MCH [7]: 20.6 pg
- MCHC [7]: 33.6%
- MCV [7]: 61.4 fL
- Mono [7]: 4.6%
- Neu [7]: 12.4%
- PT [7]: 11.5 s
- Plat [7]: 122.1 x10_4/uL
- RBC [7]: 614 x10_4/ul
- Ret [7]: 3.1%
- WBC [7]: 160.2 x10_2/uL
- APTT [8]: 16.4 s
- Bas [8]: 0%
- Eos [8]: 1.2%
- Hb [8]: 13.4 g/dL
- Ht [8]: 40.3%
- Lym [8]: 90.2%
- MCH [8]: 20 pg
- MCHC [8]: 33.2%
- MCV [8]: 60.1 fL
- Mono [8]: 2.8%
- Neu [8]: 6%
- PT [8]: 11.9 s
- Plat [8]: 96.2 x10_4/uL
- RBC [8]: 671.8 x10_4/ul
- Ret [8]: 3.7%
- WBC [8]: 236.5 x10_2/uL
- KIDNEY_L [6]: 1.2 g
- KIDNEY_R [6]: 1.3 g
- KIDNEY_TOTAL [6]: 2.5 g
- KIDNEY_L [7]: 1.3 g
- KIDNEY_R [7]: 1.4 g
- KIDNEY_TOTAL [7]: 2.7 g
- KIDNEY_L [8]: 1.5 g
- KIDNEY_R [8]: 1.6 g
- KIDNEY_TOTAL [8]: 3.1 g
- LIVER [7]: 13.5 g
- LIVER [8]: 15.1 g
- ALP [6]: 755.6 IU/L
- ALT [6]: 32.2 IU/L
- AST [6]: 53.8 IU/L
- BUN [6]: 46.4 mg/dL
- CRE [6]: 0.6 mg/dL
- DBIL [6]: 0.012 mg/dL
- GLC [6]: 192.8 mg/dL
- IP [6]: 7.7 mg/dL
- K [6]: 5.2 meq/L
- LDH [6]: 78.6 IU/L
- Na [6]: 136.8 meq/L
- PL [6]: 141.4 mg/dL
- RALB [6]: 3.5 g/dL
- TBIL [6]: 0.4 mg/dL
- TC [6]: 88.2 mg/dL
- TG [6]: 52.6 mg/dL
- TP [6]: 5.6 g/dL
- gamma-GTP [6]: 2 IU/L
- ALP [7]: 859.4 IU/L
- ALT [7]: 35.2 IU/L
- AST [7]: 58.8 IU/L
- BUN [7]: 38.8 mg/dL
- CRE [7]: 0.6 mg/dL
- DBIL [7]: 0.008 mg/dL
- GLC [7]: 191.8 mg/dL
- IP [7]: 7.8 mg/dL
- K [7]: 5 meq/L
- LDH [7]: 78.2 IU/L
- Na [7]: 133.8 meq/L
- PL [7]: 151.8 mg/dL
- RALB [7]: 3.7 g/dL
- TBIL [7]: 0.4 mg/dL
- TC [7]: 80.6 mg/dL
- TG [7]: 85.6 mg/dL
- TP [7]: 5.7 g/dL
- gamma-GTP [7]: 1.2 IU/L
- ALP [8]: 768 IU/L
- ALT [8]: 45 IU/L
- AST [8]: 71.5 IU/L
- BUN [8]: 32 mg/dL
- CRE [8]: 0.6 mg/dL
- DBIL [8]: 0.015 mg/dL
- GLC [8]: 207 mg/dL
- IP [8]: 7.7 mg/dL
- K [8]: 4.6 meq/L
- LDH [8]: 110.2 IU/L
- Na [8]: 135.8 meq/L
- PL [8]: 127.8 mg/dL
- RALB [8]: 3.6 g/dL
- TBIL [8]: 0.5 mg/dL
- TC [8]: 69 mg/dL
- TG [8]: 72.8 mg/dL
- TP [8]: 5.7 g/dL
- gamma-GTP [8]: 0.8 IU/L
